Data reported in PubChem BioAssay (NCI).
Values joined by “and” are separate entries in the source; they are usually repeats but may differ in a detail not shown here. Identical values can stand only once.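 Test compounds were applied to cells in 96-well plates for 48 hours at 5 doses. GI50: concentration for 50% inhibition of growth. At the TGI there is no net growth.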

Assays:
Assay in all cases: growth of human tumour cells (NCI), 48 h
[1] = tested on: 786-0 renal
[2] = tested on: A498 renal
[3] = tested on: A549 NSCLC
[4] = tested on: ACHN renal
[5] = tested on: BT-549 breast
[6] = tested on: CAKI-1 renal
[7] = tested on: CCRF-CEM leukemia
[8] = tested on: COLO 205 colon
[9] = tested on: DU-145 prostate
[10] = tested on: EKVX NSCLC
[11] = tested on: HCC-2998 colon
[12] = tested on: HL-60(TB) leukemia
[13] = tested on: HS 578T breast
[14] = tested on: HT29 colon
[15] = tested on: IGROV1 ovarian
[16] = tested on: KM12 colon
[17] = tested on: KM20L2 colon
[18] = tested on: LOX IMVI melanoma
[19] = tested on: LXFL 529 NSCLC
[20] = tested on: M14 melanoma
[21] = tested on: MALME-3M melanoma
[22] = tested on: MDA-MB-231 breast
[23] = tested on: MDA-MB-435
[24] = tested on: MDA-N
[25] = tested on: MOLT-4 leukemia
[26] = tested on: NCI-H226 lung
[27] = tested on: NCI-H23 lung
[28] = tested on: NCI-H460 lung
[29] = tested on: NCI-H522 lung
[30] = tested on: NCI/ADR-RES ovarian
[31] = tested on: OVCAR-3 ovarian
[32] = tested on: OVCAR-4 ovarian
[33] = tested on: OVCAR-5 ovarian
[34] = tested on: PC-3 prostate
[35] = tested on: RPMI-8226 leukemia
[36] = tested on: RXF 393 renal
[37] = tested on: SF-268 CNS
[38] = tested on: SF-295 CNS
[39] = tested on: SF-539 CNS
[40] = tested on: SK-MEL-28 melanoma
[41] = tested on: SK-MEL-5 melanoma
[42] = tested on: SK-OV-3 ovarian
[43] = tested on: SN12C renal
[44] = tested on: SNB-19 CNS
[45] = tested on: SNB-75 CNS
[46] = tested on: SNB-78 CNS
[47] = tested on: SR leukemia
[48] = tested on: SW-620 colon
[49] = tested on: TK-10 renal
[50] = tested on: U251 CNS
[51] = tested on: UACC-257 melanoma
[52] = tested on: UACC-62 melanoma
[53] = tested on: XF 498 CNS

CCCCCCCCCCCCCCCCCCOP(=O)([O-])OC1CC[N+](C)(C)CC1
GI50 [1]: 2.18 µM
TGI [1]: 5.95 µM and 8.32 µM
GI50 [2]: 2 µM
TGI [2]: 7.6 µM and 14.8 µM
GI50 [3]: 6.98 µM
TGI [3]: > 10 µM and 24.6 µM
GI50 [4]: 6.37 µM
TGI [4]: > 10 µM and 25.8 µM
GI50 [5]: 5.76 µM
TGI [5]: > 10 µM and 27.5 µM
GI50 [6]: 2.03 µM
TGI [6]: > 10 µM and 15.6 µM
GI50 [7]: 2.73 µM
TGI [7]: 7.55 µM and 10.5 µM
GI50 [8]: 1.42 µM
TGI [8]: 9.43 µM and 15.8 µM
GI50 [9]: > 10 µM
TGI [9]: > 10 µM and 38.5 µM
GI50 [10]: > 10 µM
TGI [10]: > 10 µM and 26.8 µM
TGI [11]: 17.3 µM
GI50 [12]: > 10 µM
TGI [12]: > 10 µM and 6.98 µM
GI50 [13]: > 10 µM
TGI [13]: > 10 µM and 27.5 µM
GI50 [14]: 3.04 µM
TGI [14]: > 10 µM and 14.4 µM
GI50 [15]: 1.3 µM
TGI [15]: 4.29 µM and 10.8 µM
GI50 [16]: 1.15 µM
TGI [16]: 2.97 µM and 1.46 µM
TGI [17]: 6.16 µM
GI50 [18]: 3.89 µM
TGI [18]: > 10 µM and 22 µM
TGI [19]: 16.5 µM
GI50 [20]: 1.87 µM
TGI [20]: 4.41 µM and 12.7 µM
GI50 [21]: > 10 µM
TGI [21]: > 10 µM and 26.8 µM
GI50 [22]: 4.81 µM
TGI [22]: > 10 µM and 20.8 µM
GI50 [23]: 5.91 µM
TGI [23]: > 10 µM and 30.3 µM
TGI [24]: 26.5 µM
GI50 [25]: 2.15 µM
TGI [25]: 5.57 µM and 11.3 µM
GI50 [26]: > 10 µM
TGI [26]: > 10 µM and 27.1 µM
GI50 [27]: > 10 µM
TGI [27]: > 10 µM and 28.5 µM
GI50 [28]: 2.85 µM
TGI [28]: > 10 µM and 7.65 µM
GI50 [29]: 1.89 µM
TGI [29]: 5.64 µM and 12.2 µM
GI50 [30]: > 10 µM
TGI [30]: > 10 µM and 28 µM
GI50 [31]: > 10 µM
TGI [31]: > 10 µM and 23 µM
TGI [32]: > 10 µM and 23.5 µM
GI50 [33]: 2.25 µM
TGI [33]: > 10 µM and 8.82 µM
GI50 [34]: 0.707 µM
TGI [34]: 3.46 µM and 3.75 µM
GI50 [35]: 1.18 µM
TGI [35]: > 10 µM and 13.8 µM
TGI [36]: 5.55 µM and 8.04 µM
GI50 [37]: 4.42 µM
TGI [37]: > 10 µM and 24.6 µM
GI50 [38]: 3.63 µM
TGI [38]: > 10 µM and 18.2 µM
GI50 [39]: > 10 µM
TGI [39]: > 10 µM and 29.7 µM
GI50 [40]: > 10 µM
TGI [40]: > 10 µM and 34.4 µM
TGI [41]: 29.7 µM
TGI [42]: > 10 µM and 19.1 µM
GI50 [43]: 3.87 µM
TGI [43]: > 10 µM and 15.7 µM
GI50 [44]: 5.02 µM
TGI [44]: > 10 µM and 23.2 µM
GI50 [45]: > 10 µM
TGI [45]: > 10 µM and 20 µM
TGI [46]: 46.2 µM
GI50 [47]: 0.87 µM
TGI [47]: 4.2 µM and 5.74 µM
TGI [48]: > 10 µM and 22.4 µM
GI50 [49]: 0.535 µM
TGI [49]: 1.89 µM and 5.34 µM
GI50 [50]: 4.02 µM
TGI [50]: > 10 µM and 26.1 µM
GI50 [51]: > 10 µM
TGI [51]: > 10 µM and 45.7 µM
GI50 [52]: 1.17 µM
TGI [52]: > 10 µM and 22.5 µM
TGI [53]: 29.1 µM
